A short description of one data set: in vivo. To be noted: mouse, po.
For another data set, the system named is mice. The settings on record: for Index LD50/ED100: LD50 mice oral / dose giving 100% inhibition of catatonia; for Index LD50/ED20-30: LD50 mice oral / dose giving 20 to 30% inhibition of catatonia.
Data set [1] deals with reserpine-induced catatonia. Description: Inhibition of reserpine-induced catatonia. To be noted: rat, oral. Type of data set: in vivo, rat (male, OFA strain). How it is done: Ater sufficient doses of reserpine have been administered to the rat, a series of symptoms occur, more particularly ptosis, catatonia and a drop in central temperature. These symptoms are caused by the depletion of the intrangranular reserve pool of biogenetic amines at the synaptic terminals.
An oral dose of the compound to be studied in aqueous solution was administered to batches of 10 male rats of the OFA strain weighing about 150 to 200 g. Thirty minutes later a dose of 5 mg/kg of reserpine was given by intraperitoneal route. Three hours after the injection of reserpine, the animals were suspended by the four paws to a horizontally stretched wire fixed at 15 cm from the ground. The catatonic animals were those which maintained the position so given for at least 30 seconds. […] The maximum score was therefore 10 per batch. An identical trial was undertaken with control animals which received reserpine but none of the compounds being studied.

The text below walks through data of US4057644A, “Active derivatives of methylamine in therapeutic compositions and methods of use” (priority 1976, dated 1977).

Structures are written as SMILES. Bounds are passed on as bounds.

Broadly, the LD50 is the dose expected to kill half of the subjects tested.
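Wherever Index LD50/ED100 is given: LD50 part of every column derived from compounds dosed in aqueous solution, deaths followed over a 10-day observation period after dosing.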
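Wherever Index LD50/ED20-30 is given: LD50 part of every column derived from compounds dosed in aqueous solution, deaths followed over a 10-day observation period after dosing.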
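Wherever LD50 is given: LD50 part of every column derived from compounds dosed in aqueous solution, deaths followed over a 10-day observation period after dosing.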

Turning to `CC=NC(CCC)(CCC)CCC` [Compound 42, N-ethylidene-1,1-di-n-propyl-n-butylamine], the LD50 at 240 h in the data set “in vivo” stood at 120 mg/kg. For the same compound, in the data set on mice, the “Index LD50/ED100” value was found to be 20.
On to `C=CCNC(CCC)(CCC)CCC` [Compound 35, N-allyl-1,1-di-n-propyl-n-butylamine], for which the “Inhibition of reserpine-induced catatonia” value (“Inhibition” below) in data set [1] (6 mg/kg) is 2 (represents 50% inhibition of catatonia in comparison with the controls (namely a score of 5 per studied batch)). For the same compound, the LD50 at 240 h in the data set “in vivo” came out at 130 mg/kg. For the same compound, in the data set with mice, the “Index LD50/ED100” value amounted to 21.
As for `CCCC(CCC)(CCC)NC(C)C` [Compound 34, N-isopropyl-1,1-di-n-propyl-n-butylamine], the “Inhibition” value in data set [1] (6.5 mg/kg) was 2 (represents 50% inhibition of catatonia in comparison with the controls (namely a score of 5 per studied batch)). Further, the “Index LD50/ED100” value in the data set with mice turned out to be 21.6.
With `CCCC(C)(N)CC(C)CC` (centres unmarked) [Compound 6, 1,3-Dimethyl-1-n-propyl-n-pentylamine], the “Index LD50/ED20-30” value in the data set with mice is over 25.
The compound `CCCC(CCC)(CCC)N1CCC1` [Compound 29, N,n-trimethylene-1,1-di-n-propyl-n-butylamine] showed an LD50 at 240 h in “in vivo” of 65 mg/kg. In the data set on mice, the “Index LD50/ED100” value turned out to be 10.8.
Take `CCCCCC(C)(N)CCC` (centres unmarked) [Compound 9, 1-Methyl-1-n-propyl-n-hexylamine]: the “Index LD50/ED20-30” value in the data set with mice amounted to 87.
Regarding `C=CCC(CCC)(CCC)NC` [Compound 32, N-methyl-1-n-propyl-1-alkyl-n-butylamine], the “Inhibition” value in data set [1] (5 mg/kg) was 2 (represents 50% inhibition of catatonia in comparison with the controls (namely a score of 5 per studied batch)). Further, the LD50 at 240 h in “in vivo” amounted to 170 mg/kg.
In turn, `CCCC(CCC)(CCC)N1CCOCC1` [Compound 46, N,n-(3-oxyapentamethylene)-1,1-di-n-propyl-n-butylamine] returned an LD50 at 240 h in the data set “in vivo” of 250 mg/kg. Besides, in the data set with mice, the “Index LD50/ED20-30” value is 31.
`CCCC(CCC)(CC(C)C)N(C)C` [Compound 37, N,n-dimethyl-1-n-propyl-1-isobutyl-n-butylamine]: in “in vivo”, the LD50 at 240 h was 110 mg/kg.
`C=NC(CCC)(CCC)CCC` [Compound 41] had an LD50 at 240 h in the data set “in vivo” of over 150 mg/kg. Further, the “Index LD50/ED100” value with mice worked out at 27.
On to `C#CCN(CC#C)C(CCC)(CCC)CCC` [Compound 39, N,n-dipropargyl-1,1-di-n-propyl-n-butylamine], for which the “Inhibition” value in data set [1] (15 mg/kg) is given as 2 (represents 50% inhibition of catatonia in comparison with the controls (namely a score of 5 per studied batch)). Further, the 50% lethal dose (LD50) at 240 h in “in vivo” is over 150 mg/kg.
As to `C#CCNC(CCC)(CCC)CCC` [Compound 36, N-propargyl-1,1-di-n-propyl-n-butylamine], the LD50 at 240 h in “in vivo” is over 150 mg/kg. Also, in the data set with mice, the “Index LD50/ED20-30” value is on record as over 25.
Regarding `CCCC(CCC)(CCC)NCCCO` [Compound 45, N-(3-hydroxy-n-propyl)-1,1-di-n-propyl-n-butylamine], the “Inhibition” value in data set [1] (14 mg/kg) is listed as 2 (represents 50% inhibition of catatonia in comparison with the controls (namely a score of 5 per studied batch)). The LD50 at 240 h in the data set “in vivo” amounted to 140 mg/kg.
As for `CCCC(CCC)(CCC)NCC` [Compound 33, N-ethyl-1,1-di-n-propyl-n-butylamine], the “Inhibition” value in data set [1] (6 mg/kg) is given as 2 (represents 50% inhibition of catatonia in comparison with the controls (namely a score of 5 per studied batch)). The compound also yielded an LD50 at 240 h in the data set “in vivo” of 100 mg/kg. The “Index LD50/ED100” value in the data set with mice was found to be 16.5.
Take `CCCC(CCC)(CCC)N(C)CC` [Compound 38, N-methyl-N-ethyl-1,1-di-n-propyl-n-butylamine]: the “Inhibition” value in data set [1] (6.5 mg/kg) is 2 (represents 50% inhibition of catatonia in comparison with the controls (namely a score of 5 per studied batch)). In addition, the LD50 at 240 h in “in vivo” was over 120 mg/kg.
